The source of these data is PMC8620715, “Biological Activity of Triazolopyrimidine Copper(II) Complexes Modulated by an Auxiliary N-N-Chelating Heterocycle Ligands” (Molecules, 2021).

This test has as its system plasmid pRSII325. Kind of test: Nuclease activity assay (gel electrophoresis). To be noted: 37 °C; for DNA cleavage in the presence of H2O2: 0.1 and 0.5 mM complex + 1 mM H2O2, 1 h; for DNA cleavage in the presence of ascorbate: 0.1 and 0.5 mM complex + 1 mM ascorbate; for DNA cleavage in the presence of ascorbate / DNA cleavage, complex alone: 1 h; for DNA cleavage, complex alone: 0.1 and 0.5 mM. In kind it is biochemical. On the procedure: To investigate the DNA cleavage activity of the two Cu(II) complexes, plasmidial DNA was incubated with (1) and (2), both in the absence or in the presence of activating agents, such as H2O2 or ascorbate. Exposure of DNA to the Cu(II) complexes in the presence of H2O2 exploits the CuII/III redox couple, while in the presence of ascorbate, the CuI/II redox couple is exploited. The nuclease activity of copper(II) complexes (1) and (2) was tested on plasmid pRSII325, which is a 6835 bp (base pair) circular plasmid. Gel electrophoresis of purified pRSII325 identified two main bands belonging to the supercoiled (SC) plasmid, which migrates faster, and the nicked-circular (NC) plasmid, which migrates slower (Figure 12, lane 1).
The nuclease activity of the compounds was determined using plasmid […] DNA, which was a gift from Steven Haase (Addgene plasmid #35467, 6835 base pairs). The plasmid was amplified in Escherichia coli by transforming One Shot® TOP10 chemically competent E. coli (Invitrogen, Thermo Fisher Scientific). The plasmid was isolated from positive colonies using a PureLink™ HiPure Plasmid Miniprep Kit (Invitrogen, Thermo Fisher Scientific). Plasmid (200 ng/sample) was exposed to complexes (1) and (2) in the presence of 1 mM hydrogen peroxide (to exploit the Cu(II/III) redox couple) or 1 mM ascorbic acid (to exploit the Cu(I/II) redox couple). The DNA cleavage experiments were done in a 9/1 (v/v) ratio of 50 mM Tris-HCl, pH 8, and DMSO. The samples were incubated for 1 h at 37 °C before a bromophenol blue/xylene cyanol-based loading dye (Roth, Germany) was added. The samples were loaded onto a 1% (w/v) agarose gel containing 1 μg/mL EtBr in 1 × TBE (Tris–boric acid–EDTA) buffer. Electrophoresis was performed at 50 V for 60 min in 1 × TBE buffer. The images of the fluorescent ethidium bromide-stained gels were captured using a gel documentation system (Doc-Print II, VilberLourmat, France). The cleavage experiments were done three times, with similar results. One representative gel is shown.

Molecules are shown by their SMILES.

As for `Cc1cc(C)n2ncnc2n1.Cc1cc(C)n2ncnc2n1.Cc1cc(C)n2ncnc2n1.O.[Cu+2].[O-][Cl+3]([O-])([O-])[O-].[O-][Cl+3]([O-])([O-])[O-].c1ccc(-c2ccccn2)nc1` [Complex (1), [Cu(bpy)(dmtp)2(OH2)](ClO4)2·dmtp], the “DNA cleavage in the presence of H2O2” value is “led to DNA degradation”; the “DNA cleavage in the presence of ascorbate” value is listed as “led to DNA degradation”; the “DNA cleavage, complex alone” value is reported as “caused plasmid relaxation to the NC form”.

In the case of `Cc1cc(C)n2ncnc2n1.Cc1cc(C)n2ncnc2n1.Cc1cc(C)n2ncnc2n1.O.[Cu+2].[O-][Cl+3]([O-])([O-])[O-].[O-][Cl+3]([O-])([O-])[O-].c1cnc2c(c1)ccc1cccnc12` [Complex (2), [Cu(phen)(dmtp)2(OH2)](ClO4)2·dmtp], the “DNA cleavage in the presence of H2O2” value is “H2O2 strongly enhancing the nuclease activity”; the “DNA cleavage in the presence of ascorbate” value was “a higher concentration of (2) was needed for full nuclease activity”; the “DNA cleavage, complex alone” value is “caused plasmid relaxation to the NC form”.
